# Activity calls are given as the source filed them. How the calls were made is not given here.
# Molecular target: Perilipin-5 (Homo sapiens) + 1-acylglycerol-3-phosphate O-acyltransferase ABHD5 (Homo sapiens) (UniProt Q00G26+Q8WTS1)
# Test: PubChem AID 652130
# Details: ABHD5/PLIN5 interaction, luminescence, HEK293T-produced proteins
# Perilipin-5 (Homo sapiens) + 1-acylglycerol-3-phosphate O-acyltransferase ABHD5 (Homo sapiens), sequence (Q00G26 whole entry, looked up): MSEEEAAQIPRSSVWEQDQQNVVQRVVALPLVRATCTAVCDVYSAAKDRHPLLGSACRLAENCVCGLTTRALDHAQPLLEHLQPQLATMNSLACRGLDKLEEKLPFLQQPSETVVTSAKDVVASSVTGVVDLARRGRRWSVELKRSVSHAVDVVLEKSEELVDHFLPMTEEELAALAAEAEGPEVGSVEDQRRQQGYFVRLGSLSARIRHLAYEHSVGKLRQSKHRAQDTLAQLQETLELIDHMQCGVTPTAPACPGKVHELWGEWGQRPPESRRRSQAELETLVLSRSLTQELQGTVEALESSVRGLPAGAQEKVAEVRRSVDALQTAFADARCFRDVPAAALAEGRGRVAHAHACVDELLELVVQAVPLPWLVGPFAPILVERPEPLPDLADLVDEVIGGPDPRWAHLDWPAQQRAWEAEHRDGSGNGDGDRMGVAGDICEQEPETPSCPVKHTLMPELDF
# Perilipin-5 (Homo sapiens) + 1-acylglycerol-3-phosphate O-acyltransferase ABHD5 (Homo sapiens), sequence (Q8WTS1 whole entry, looked up): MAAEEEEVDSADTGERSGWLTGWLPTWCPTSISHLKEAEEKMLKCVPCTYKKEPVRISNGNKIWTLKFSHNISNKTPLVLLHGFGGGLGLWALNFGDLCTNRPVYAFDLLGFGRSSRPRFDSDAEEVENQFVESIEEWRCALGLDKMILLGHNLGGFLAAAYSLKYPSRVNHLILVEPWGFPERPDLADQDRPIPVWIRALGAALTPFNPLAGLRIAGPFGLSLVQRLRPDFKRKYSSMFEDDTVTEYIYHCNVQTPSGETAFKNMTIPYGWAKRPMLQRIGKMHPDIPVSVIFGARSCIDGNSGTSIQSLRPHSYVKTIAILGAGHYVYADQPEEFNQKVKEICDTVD
row,Compound,IC50
1,O=C(Cc1cccc(F)c1)N1CCN(S(=O)(=O)c2ccc3c(c2)OCCO3)CC1,> 39.8 µM (inactive)
2,CCCS(=O)(=O)c1ccc(Cl)c(C(=O)Nc2ccc(C(=O)OCC)cc2)c1,6.17 µM
3,CCCS(=O)(=O)c1ncc(Cl)c(C(=O)Nc2ccc(C(=O)OC)cc2)n1,6.37 µM
4,CN(C)CCCN(C(=O)c1cc2ccccc2oc1=O)c1nc2ccc(Cl)cc2s1,> 39.8 µM (inactive)
5,Cc1ccc(CS(=O)(=O)c2ncc(Cl)c(C(=O)NCc3ccc4c(c3)OCO4)n2)cc1,3.36 µM
6,CC(C)N1C(=O)c2ccccc2Oc2ccc(NC(=O)c3ccccc3)cc21,> 39.8 µM (inactive)
7,CN1C(=O)c2ccccc2Sc2ccc(NC(=O)NCCc3ccccc3)cc21,4.37 µM
8,CCS(=O)(=O)c1ncc(Cl)c(C(=O)Nc2ccc(S(N)(=O)=O)cc2)n1,8.4 µM
9,O=C(CCc1c[nH]c2ccccc12)N1CCN(S(=O)(=O)c2ccc3c(c2)OCCO3)CC1,> 39.8 µM (inactive)
10,CCCC(=O)N(CCCN1CCOCC1)c1nc2ccc(Cl)cc2s1,> 39.8 µM (inactive)
11,CCCCCCCNC(=O)Nc1ccc2c(c1)Sc1ccccc1C(=O)N2C,inactive
12,COc1ccc(CCNC(=O)c2nc(S(=O)(=O)Cc3ccc(F)cc3)ncc2Cl)cc1OC,2.82 µM
13,Cc1ccc(CS(=O)(=O)c2ncc(Cl)c(C(=O)Nc3nnc(C(C)C)s3)n2)cc1,> 39.8 µM (inactive)
14,CCCC(=O)Nc1ccc2c(c1)C(=O)N(C)c1cc(C)ccc1O2,> 39.8 µM (inactive)
15,NS(=O)(=O)c1ccc(NC(=O)c2nc(S(=O)(=O)Cc3ccccc3)ncc2Cl)cc1,4.68 µM
16,CN1C(=O)c2ccccc2Oc2ccc(NC(=O)c3cc4ccccc4[nH]3)cc21,> 39.8 µM (inactive)
17,Cc1ccc(CS(=O)(=O)c2ncc(Cl)c(C(=O)N3CCN(C)CC3)n2)cc1,5.9 µM
18,COc1ccc(CC(=O)N2CCN(S(=O)(=O)c3ccc4c(c3)OCCCO4)CC2)cc1,> 39.8 µM (inactive)
19,Cc1ccc2c(CC(=O)N3CCN(S(=O)(=O)c4ccc5c(c4)OCCCO5)CC3)coc2c1C,4.85 µM
20,CN1C(=O)c2ccccc2Sc2ccc(NC(=O)NCCc3cccs3)cc21,5.6 µM
21,O=C(CCc1nc2ccccc2s1)N1CCN(S(=O)(=O)c2ccc3c(c2)OCCO3)CC1,inactive
22,CCCCCCNC(=O)Nc1ccc2c(c1)Sc1ccccc1C(=O)N2C,> 39.8 µM (inactive)
23,O=C(Nc1ccc2ccccc2c1)c1nc(S(=O)(=O)Cc2ccccc2)ncc1Cl,2.36 µM
24,Cc1ccc(CS(=O)(=O)c2ncc(Cl)c(C(=O)Nc3cccc(C(F)(F)F)c3)n2)cc1,2.46 µM

# Next, values leading:
row,IC50,Compound
1,3.65 µM,CN(C(=O)c1nc(S(C)(=O)=O)ncc1Cl)c1ccccc1
2,4.23 µM,CCS(=O)(=O)c1ncc(Cl)c(C(=O)Nc2ccc(C)cc2)n1
3,1.62 µM,CS(=O)(=O)c1ncc(Cl)c(C(=O)Nc2ccc(C(F)(F)F)cc2)n1
4,inactive,CCCNC(=O)Nc1ccc2c(c1)N(CC)C(=O)c1ccccc1S2
5,3.83 µM,Cc1ccc(NC(=O)c2nc(S(C)(=O)=O)ncc2Cl)cc1
6,1.76 µM,O=C(c1nc(S(=O)(=O)Cc2ccccc2)ncc1Cl)N(Cc1ccccc1)Cc1ccco1
7,> 39.8 µM (inactive),CCCC(=O)Nc1ccc2c(c1)C(=O)N(C)c1ccccc1O2
8,> 39.8 µM (inactive),COc1ccc(CC(=O)N2CCCN(S(=O)(=O)c3ccc(C)cc3)CC2)cc1OC
9,> 39.8 µM (inactive),CN(C)CCCN(C(=O)C1CCCCC1)c1nc2cc(Cl)ccc2s1
10,1.99 µM,CN1C(=O)c2ccccc2Sc2ccc(NC(=O)NCCCc3ccccc3)cc21
11,inactive,Cc1ccc2cc(CC(=O)N3CCN(S(=O)(=O)c4ccc5c(c4)OCCO5)CC3)oc2c1
12,> 39.8 µM (inactive),O=C(C1COc2ccccc2O1)N1CCN(S(=O)(=O)c2ccc3c(c2)OCCO3)CC1 (configuration not stated)
13,> 39.8 µM (inactive),CN1C(=O)c2ccccc2Oc2ccc(NC(=O)c3cccs3)cc21
14,> 39.8 µM (inactive),CN(C)CCCN(C(=O)Cc1ccc(F)cc1)c1nc2ccc(Cl)cc2s1
15,> 39.8 µM (inactive),COc1ccc(OCC(=O)Nc2ccc3c(c2)N(C(C)C)C(=O)c2ccccc2O3)cc1
16,2.7 µM,Cc1ccc(CS(=O)(=O)c2ncc(Cl)c(C(=O)Nc3cccc4ccccc34)n2)cc1
17,> 39.8 µM (inactive),O=C(CCn1cnc2ccccc21)N1CCN(S(=O)(=O)c2ccc3c(c2)OCCO3)CC1
18,> 39.8 µM (inactive),CC(NC(=O)CN1CCN(S(=O)(=O)c2ccc3c(c2)OCCCO3)CC1)c1cc2ccccc2o1 (configuration not stated)
19,inactive,O=C(Cc1ccc2c(c1)CCCC2)N1CCN(S(=O)(=O)c2ccc3c(c2)OCCO3)CC1
20,> 39.8 µM (inactive),CN(C)CCCN(C(=O)C1CCCCC1)c1nc2cc(Br)ccc2s1
21,3.46 µM,CCc1ccc2c(CC(=O)N3CCN(S(=O)(=O)c4ccc5c(c4)OCCO5)CC3)coc2c1
22,> 39.8 µM (inactive),CN(C)CCCN(C(=O)CCc1ccccc1)c1nc2ccc(Cl)cc2s1
23,> 39.8 µM (inactive),CCCCCNC(=O)Nc1ccc2c(c1)Sc1ccccc1C(=O)N2C

# Source: PubChem BioAssay AID652130 (The Scripps Research Institute Molecular Screening Center, 2013)
